Results on 1 compound are retold here after EPA's ToxValDB 9.5 (doi:10.2903/j.efsa.2006.68r).

One series concerns Apis mellifera. The conditions noted are these: acute, mortality.
For another series, the system named is Bibionidae. The note with it: chronic/long-term; duration: 28 days.
Another series deals with Daphnia magna. The note with it: chronic/long-term; duration: 21 days.
Another series deals with Oryctolagus sp. The note with it: reproduction developmental; clinical signs.
A further series concerns Rattus norvegicus. The conditions noted are these: for NOAEL: neurology.
The next series relates to Aphidius rhopalosiphi. In words: LR50; higher = less toxic. The conditions noted are these: not reported; mortality.
The next series concerns Typhlodromus pyri. Description: LR50; higher = less toxic. The note with it: not reported; mortality.

Converted amounts (≈) assume the structure as drawn. A value given as a limit tells only on which side of the number the result lay.

As to `CCOP(=O)(SC(C)CC)SC(C)CC` (configuration not stated) [Cadusafos], the LD50 in the series with Apis mellifera (dermal) stood at 1.8 µg/piece; in the series on Apis mellifera (oral, unspecified), 2.07 µg/piece; with Colinus virginianus (acute, oral, mortality), 16.1 mg/kg-day; with Rattus norvegicus (acute, oral, mortality), 37.1 mg/kg. Also, the NOEC in the series with Bibionidae amounted to 32 µg/kg; with Daphnia magna, 0.231 mg/L; with Oncorhynchus mykiss (chronic/long-term, duration: 95 days), 5.22 mg/L; in the series with Pontoscolex corethrurus (chronic/long-term, reproduction), 1.8 mg/kg. Besides, the LC50 was 10.8 mg/kg-day in the series with Colinus virginianus (acute, oral, diet, mortality); 130 µg/mL (≈ 481 µM) in the series on Oncorhynchus mykiss (acute, duration: 96 hours, mortality); 12.5 mg/kg in the series on Pontoscolex corethrurus (acute, mortality). Moreover, the NOEL in the series with Colinus virginianus (reproduction developmental) was at least 1.1 mg/kg-day. The no-observed-adverse-effect level (NOAEL) was found to be 0.3 mg/kg-day with Oryctolagus sp.; 0.045 mg/kg-day in the series on Rattus norvegicus (chronic, duration: 2 years, F); 0.067 mg/kg-day in the series on Rattus norvegicus (subchronic, duration: 90 days, oral, diet). Also, the LR50 with Aphidius rhopalosiphi was 3.75 g/ha; with Typhlodromus pyri it was 44.4 g/ha.

In general, NOAEL refers to the highest dose or exposure tested at which no adverse effect was seen.
